# Test results: patent US20240228488A1 (TAKEDA PHARMACEUTICAL COMPANY LIMITED, priority 2021, published 2024)
# Experiments:
# plasma kallikrein = biological target: T1, plasma kallikrein (Homo sapiens, UniProt P03952); assay: Neat human plasma assay, FXIIa contact pathway-activated, PFR-AMC substrate; format: biochemical; settings: citrated human plasma 78% final, 10 nM human FXIIa, 100 μM PFR-AMC; read-out: Human Plasma Assay: IC90
# T1 construct: from tissue
# Method in brief: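 Citrated human plasma (78% final) with compound, contact-activated by 10 nM human FXIIa in pKal buffer pH 7.5, with 100 μM PFR-AMC. Fluorescence (360/480 nm) followed 5 min at room temperature; rates versus concentration fitted by 4-parameter equation for IC50/IC90.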
# [1] = biological target: human activated kallikrein enzyme (Homo sapiens, UniProt P03952); assay: Plasma kallikrein inhibition, fluorogenic PFR-AMC substrate, 500 pM activated kallikrein format; format: biochemical; settings: 500 pM activated kallikrein, 300 uM PFR-AMC, 30 min preincubation, 10 min reaction; read-out: Primary Dose Response Assay: Average EC50
# human activated kallikrein enzyme, sequence (P03952 391-638 limits assumed): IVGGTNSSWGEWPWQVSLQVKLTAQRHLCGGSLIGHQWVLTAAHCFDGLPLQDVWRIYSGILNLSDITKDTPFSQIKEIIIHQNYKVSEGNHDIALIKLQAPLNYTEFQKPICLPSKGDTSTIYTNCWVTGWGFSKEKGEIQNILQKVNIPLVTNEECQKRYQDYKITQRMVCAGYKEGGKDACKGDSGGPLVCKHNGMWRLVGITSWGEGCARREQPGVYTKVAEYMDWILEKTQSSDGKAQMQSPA
# human activated kallikrein enzyme, sequence (P03952 20-390 partner limits assumed): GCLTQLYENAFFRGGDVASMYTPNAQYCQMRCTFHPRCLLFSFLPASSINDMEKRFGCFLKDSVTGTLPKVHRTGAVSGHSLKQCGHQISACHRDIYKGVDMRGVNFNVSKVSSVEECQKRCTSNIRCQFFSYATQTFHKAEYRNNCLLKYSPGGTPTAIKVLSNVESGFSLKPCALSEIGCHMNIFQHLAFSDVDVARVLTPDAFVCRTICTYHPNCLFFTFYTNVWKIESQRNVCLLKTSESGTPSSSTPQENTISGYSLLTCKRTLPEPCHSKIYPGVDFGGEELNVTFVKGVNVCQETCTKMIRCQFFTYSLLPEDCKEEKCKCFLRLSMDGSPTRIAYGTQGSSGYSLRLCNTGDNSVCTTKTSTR
# Method in brief: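 Enzyme (500 pM) was preincubated with inhibitor for 30 min at room temperature in 20 mM Tris pH 7.5, 1 mM EDTA, 150 mM NaCl, 0.1% PEG-400 and 0.1% Triton X-100. The reaction was started with 300 uM PFR-AMC, run 10 min, and fluorescence read at 460 nm (380 nm excitation). EC50 derived.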
# T1 sequence (P03952 391-638 limits assumed): as the sequence (P03952 391-638 limits assumed) above
# T1 sequence (P03952 20-390 partner limits assumed): as the sequence (P03952 20-390 partner limits assumed) above
Compound,IC90 (plasma kallikrein),EC50 [1]
"Cc1cc(NCc2cn3cc(C4CC4)cc(N4CC(=O)N(C)C4=O)c3n2)nc(NC(=O)[C@H]2C[C@@H]2c2nccc(C)n2)n1 (racemic) [Example 519, rac-(1S*,2S*)-N-(4-(((6-cyclopropyl-8-(3-methyl-2,4-dioxoimidazolidin-1-yl)imidazo[1,2-a]pyridin-2-yl)methyl)amino)-6-methylpyrimidin-2-yl)-2-(4-methylpyrimidin-2-yl)cyclopropane-1-carboxamide]",< 400 nM,< 1 nM
"Cc1ccnc([C@H]2C[C@@H]2C(=O)Nc2nccc(NCc3cn4cc(C5CC5)cc(N5CC(=O)N(C)C5=O)c4n3)n2)n1 (racemic) [Example 520, rac-(1S*,2S*)-N-(4-(((6-cyclopropyl-8-(3-methyl-2,4-dioxoimidazolidin-1-yl)imidazo[1,2-a]pyridin-2-yl)methyl)amino)pyrimidin-2-yl)-2-(4-methylpyrimidin-2-yl)cyclopropane-1-carboxamide]",< 400 nM,< 1 nM
"O=C1CN(c2cc(C3CC3)cn3cc(CNc4ccnc(NC(=O)[C@H]5C[C@@H]5c5cc(Cl)ccn5)n4)nc23)C(=O)N1 (racemic) [Example 521, rac-(1S*,2S*)-2-(4-chloropyridin-2-yl)-N-(4-(((6-cyclopropyl-8-(2,4-dioxoimidazolidin-1-yl)imidazo[1,2-a]pyridin-2-yl)methyl)amino)pyrimidin-2-yl)cyclopropane-1-carboxamide]",400 to 1500 nM,< 1 nM
"Cc1ccnc([C@H]2C[C@@H]2C(=O)Nc2nc(C3CC3)nc(N(C)Cc3cn4cc(C5CC5)cc(N5CC(=O)NC5=O)c4n3)n2)n1 (racemic) [Example 522, rac-(1S*,2S*)-N-(4-cyclopropyl-6-(((6-cyclopropyl-8-(2,4-dioxoimidazolidin-1-yl)imidazo[1,2-a]pyridin-2-yl)methyl)(methyl)amino)-1,3,5-triazin-2-yl)-2-(4-methylpyrimidin-2-yl)cyclopropane-1-carboxamide]",400 to 1500 nM,< 1 nM
"Cc1ccnc([C@H]2C[C@@H]2C(=O)Nc2nc(NCc3cn4cc(C5CC5)cc(N5CC(=O)N(C)C5=O)c4n3)nc(C3CC3)n2)n1 (racemic) [Example 523, rac-(1S*,2S*)-N-(4-cyclopropyl-6-(((6-cyclopropyl-8-(3-methyl-2,4-dioxoimidazolidin-1-yl)imidazo[1,2-a]pyridin-2-yl)methyl)amino)-1,3,5-triazin-2-yl)-2-(4-methylpyrimidin-2-yl)cyclopropane-1-carboxamide]",< 400 nM,< 1 nM
"Cc1ccnc([C@H]2C[C@@H]2C(=O)Nc2nc(C)nc(N(C)Cc3cn4cc(C5CC5)cc(N5CC(=O)NC5=O)c4n3)n2)n1 (racemic) [Example 524, rac-(1S*,2S*)-N-(4-(((6-cyclopropyl-8-(2,4-dioxoimidazolidin-1-yl)imidazo[1,2-a]pyridin-2-yl)methyl)(methyl)amino)-6-methyl-1,3,5-triazin-2-yl)-2-(4-methylpyrimidin-2-yl)cyclopropane-1-carboxamide]",400 to 1500 nM,< 1 nM
"Cc1ccnc([C@H]2C[C@@H]2C(=O)Nc2nc(C)nc(NCc3cn4cc(C5CC5)cc(N5CC(=O)N(C)C5=O)c4n3)n2)n1 (racemic) [Example 525, rac-(1S*,2S*)-N-(4-(((6-cyclopropyl-8-(3-methyl-2,4-dioxoimidazolidin-1-yl)imidazo[1,2-a]pyridin-2-yl)methyl)amino)-6-methyl-1,3,5-triazin-2-yl)-2-(4-methylpyrimidin-2-yl)cyclopropane-1-carboxamide]",< 400 nM,< 1 nM
"Cc1ccnc([C@H]2C[C@@H]2C(=O)Nc2cncc(NCc3cn4cc(C5CC5)cc(N5CC(=O)N(C)C5=O)c4n3)n2)n1 (racemic) [Example 526, rac-(1S*,2S*)-N-(6-(((6-cyclopropyl-8-(3-methyl-2,4-dioxoimidazolidin-1-yl)imidazo[1,2-a]pyridin-2-yl)methyl)amino)pyrazin-2-yl)-2-(4-methylpyrimidin-2-yl)cyclopropane-1-carboxamide]",400 to 1500 nM,< 1 nM
"Cc1ccnc([C@H]2C[C@@H]2C(=O)Nc2nc(NCc3cn4cc(C5CC5)cc(N5CC(=O)N(C)C5=O)c4n3)cc(C3CC3)n2)n1 (racemic) [Example 539, rac-(1S*,2S*)—N-(4-cyclopropyl-6-(((6-cyclopropyl-8-(3-methyl-2,4-dioxoimidazolidin-1-yl)imidazo[1,2-a]pyridin-2-yl)methyl)amino)pyrimidin-2-yl)-2-(4-methylpyrimidin-2-yl)cyclopropane-1-carboxamide]",1500 to 10000 nM,< 1 nM
"Cc1ccnc([C@H]2C[C@@H]2C(=O)Nc2ncc(F)c(NCc3cn4cc(C5CC5)cc(N5CC(=O)N(CCO)C5=O)c4n3)n2)n1 (racemic) [Example 540, rac-(1S*,2S*)—N-(4-(((6-cyclopropyl-8-(3-(2-hydroxyethyl)-2,4-dioxoimidazolidin-1-yl)imidazo[1,2-a]pyridin-2-yl)methyl)amino)-5-fluoropyrimidin-2-yl)-2-(4-methylpyrimidin-2-yl)cyclopropane-1-carboxamide]",< 400 nM,< 1 nM
"CN1C(=O)CN(c2cc(C3CC3)cn3cc(CNc4cc(NC(=O)[C@@H]5[C@@H](c6cccc(Cl)c6)C5(F)F)ncn4)nc23)C1=O (racemic) [Example 543, rac-(1S*,3S*)-3-(3-chlorophenyl)-N-(6-(((6-cyclopropyl-8-(3-methyl-2,4-dioxoimidazolidin-1-yl)imidazo[1,2-a]pyridin-2-yl)methyl)amino)pyrimidin-4-yl)-2,2-difluorocyclopropane-1-carboxamide]",1500 to 10000 nM,1 to 10 nM
"Cc1ccnc([C@@]2(F)C[C@@H]2C(=O)Nc2cc(N[C@H](C)c3cn4cc(C5CC5)cc(N5CC(=O)N(C)C5=O)c4n3)nc(C)n2)n1 (racemic) [Example 546, rac-(1S*,2S*)—N-(6-(((R)-1-(6-cyclopropyl-8-(3-methyl-2,4-dioxoimidazolidin-1-yl)imidazo[1,2-a]pyridin-2-yl)ethyl)amino)-2-methylpyrimidin-4-yl)-2-fluoro-2-(4-methylpyrimidin-2-yl)cyclopropane-1-carboxamide]",400 to 1500 nM,< 1 nM
"COc1ccc(C#N)c([C@H]2C[C@@H]2C(=O)Nc2cc(OCc3cn4cc(C5CC5)cc(N5CC(=O)N(C)C5=O)c4n3)cnn2)c1 (racemic) [Example 559, rac-(1S*,2S*)-2-(2-cyano-5-methoxyphenyl)-N-(5-((6-cyclopropyl-8-(3-methyl-2,4-dioxoimidazolidin-1-yl)imidazo[1,2-a]pyridin-2-yl)methoxy)pyridazin-3-yl)cyclopropane-1-carboxamide]",400 to 1500 nM,1 to 10 nM
"N#CCCc1cc(C2CC2)cn2cc(COc3ccnc(NC(=O)[C@H]4C[C@@H]4c4cccc(Cl)c4)c3)nc12 (racemic) [Example 566, rac-(1S*,2S*)-2-(3-chlorophenyl)-N-(4-((8-(2-cyanoethyl)-6-cyclopropylimidazo[1,2-a]pyridin-2-yl)methoxy)pyridin-2-yl)cyclopropane-1-carboxamide]",10000 to 48000 nM,1 to 10 nM
"O=C(Nc1cncc(NCc2cn3cc(C4CC4)ccc3n2)c1)[C@H]1C[C@@H]1c1cccc(Cl)c1 (racemic) [Example 574, rac-(1S*,2S*)-2-(3-chlorophenyl)-N-(5-(((6-cyclopropylimidazo[1,2-a]pyridin-2-yl)methyl)amino)pyridin-3-yl)cyclopropane-1-carboxamide]",10000 to 48000 nM,1 to 10 nM
"Cc1ccnc([C@H]2C[C@@H]2C(=O)Nc2cncc(NCc3cn4cc(C5CC5)cc(N5CC(=O)N(C)C5=O)c4n3)c2)n1 (racemic) [Example 575, rac-(1S*,2S*)-N-(5-(((6-cyclopropyl-8-(3-methyl-2,4-dioxoimidazolidin-1-yl)imidazo[1,2-a]pyridin-2-yl)methyl)amino)pyridin-3-yl)-2-(4-methylpyrimidin-2-yl)cyclopropane-1-carboxamide]",< 400 nM,< 1 nM
O=C(Nc1nsc(NCc2cn3cc(C4CC4)ccc3n2)n1)[C@H]1C[C@@H]1c1cc(Cl)ccn1 (racemic) [Example 614],10000 to 48000 nM,1 to 10 nM
"Cc1ccnc([C@H]2C[C@@H]2C(=O)Nc2cc(NCc3cn4cc(C5CC5)cc(N5CC(=O)N(C)C5=O)c4n3)cnn2)n1 (racemic) [Example 617, rac-(1S*,2S*)—N-(5-(((6-cyclopropyl-8-(3-methyl-2,4-dioxoimidazolidin-1-yl)imidazo[1,2-a]pyridin-2-yl)methyl)amino)pyridazin-3-yl)-2-(4-methylpyrimidin-2-yl)cyclopropane-1-carboxamide]",< 400 nM,< 1 nM
"Cc1ccnc([C@H]2C[C@@H]2C(=O)Nc2cc(NCc3cn4cc(C5CC5)cc(N5CC(=O)N(C)C5=O)c4n3)cc(C(F)(F)F)n2)n1 (racemic) [Example 618, rac-(1S*,2S*)—N-(4-(((6-cyclopropyl-8-(3-methyl-2,4-dioxoimidazolidin-1-yl)imidazo[1,2-a]pyridin-2-yl)methyl)amino)-6-(trifluoromethyl)pyridin-2-yl)-2-(4-methylpyrimidin-2-yl)cyclopropane-1-carboxamide]",400 to 1500 nM,< 1 nM
"Cc1ccnc([C@H]2C[C@@H]2C(=O)Nc2cc(Cc3cn4cc(C5CC5)cc(N5CC(=O)N(C)C5=O)c4n3)ncn2)n1 (racemic) [Example 620, rac-(1S*,2S*)—N-(6-((6-cyclopropyl-8-(3-methyl-2,4-dioxoimidazolidin-1-yl)imidazo[1,2-a]pyridin-2-yl)methyl)pyrimidin-4-yl)-2-(4-methylpyrimidin-2-yl)cyclopropane-1-carboxamide]",400 to 1500 nM,1 to 10 nM
